What was measured:
CFPAC1 cells = test: Transcriptional changes to EMT genes, qPCR; format: cell-based, human
Description: The CFPAC1 cell line was cultured in DMEM media (Gibco #11960) supplemented with 10% FBS (Sigma), 2 mM L Glutamine (Gibco), at 37° C., 5% CO2. For 7 day treatments, cells were seeded on tissue culture plastic in complete growth media and allowed to attach overnight at cell densities that would provide approximately 60-80% confluence at end of experiment. Ligand and/or inhibitor was added the following day (Day 0) in complete growth media and incubated at 37° C., 5% CO2. Ligand source and concentrations used are as follows: [1] From R&D systems, SDF-1α (stromal derived factor-1 alpha) at 100 ng/ml, TRANCE (TNF-related activation induced cytokine) at 50 ng/ml, FGF1 (fibroblast growth factor acidic) at 10 ng/ml, FGF2 (fibroblast growth factor basic) at 10 ng/ml, BMP4 (bone morphogenetic protein 4) at 100 ng/ml, BMP7 (bone morphogenetic protein 7) at 100 ng/ml, IGF2 (insulin-like growth factor 2) at 100 ng/ml, OSM (Oncostatin M) at 100 ng/ml, NRG1 (Neuregulin-1) at 50 ng/ml, PDGFaa (Platelet derived growth factor a) at 50 ng/ml, PDGFbb (platelet derive growth factor b) at 30 ng/ml, Ang2 (Angiopoeitin 2) at 400 ng/ml, amphiregulin at 100 ng/ml, HMGB 1 (Human high-mobility group box 1 protein) at 50 ng/ml; [2] From Genscript, LIF (Leukemia inhibitory factor) at 20 ng/ml, GM-CSF (Granulocyte macrophage colony stimulating factor) at 25 ng/ml, M-CSF (Macrophage colony stimulating factor) at 50 ng/ml; [3] From Anaspec, PAR1 (Protease activated receptor 1 agonist) at 100 μM; PAR2 (Protease activated receptor 2 agonist; peptide SLIGKV-NH2, Cat. No. 60217-1) at 100 μM; PAR4 (Protease activated receptor […] agonist; peptide AYPGKF-NH2, Cat. No. 60218-1) at 100 μM; [4] From Peprotech, HGF (Hepatocyte Growth Factor) at 100 ng/ml; IL-31 (Interleukin-31) at 50 ng/ml, IL-33 (Interleukin-33) at 50 ng/ml, IL1-a (Interleukin-1 alpha) at 10 ng/ml, CTGF (Connective tissue growth factor) at 20 ng/ml, WISP1 (Wnt-1 inducible signaling pathway protein) at 20 ng/ml, PTHrP ([…] hormone-related protein) at 50 ng/ml, MCP1 (monocyte chemotactic protein-1) at 50 ng/ml; and [5] from Sigma, Fulvestrant at 1 μM. Fresh medium containing ligand and/or inhibitor was added 3-4 days after initial dose, and at Day 7 cells were harvested for western blot analysis.
Cells were plated and treated with ligand for one or 7 days. At the time of harvest, cells were trypsinized and snap frozen for later use. Total RNA was isolated using RNAqueous-4 PCR Kit (Ambion, AM1914). For qPCR on tumor material, the tumor samples were homogenized using a small tissue homogenizer (Ultra-Turrax T8 from IKA-Werke) in 175ul RNA lysis buffer. Homogenization was for 1 minute on ice. RNA was isolated using the SV Total RNA Isolation System (Promega Cat #Z3100) according to the manufactures instructions. Samples were DNase treated using the Turbo DNA-Free kit (Ambion, AM1907) and reverse transcribed using Superscript III (Invitrogen, 18080-044) for qPCR analysis. Taqman primers and Locked-Nucleic Acid probes were designed using ProbeFinder software (Universal Probe library, Roche). For mRNA analysis, real time PCR was performed using the ABI 7900HT series PCR machine. Thermocycle conditions were as follows: 50° C. for 2 minutes, 95° C. for 10 minutes, 95° C. for 15 seconds, 50° C. for 10 seconds, 60° C. for 1 minute. Data was collected over 45 cycles and then normalized to GAPDH and further normalized to the untreated control sample.

CFPAC-1 cells = test: MET/EMT reversion experiment (ligand withdrawal); format: cell-based, human; conditions: ligand 14 days, then removed; morphology and E-cadherin/vimentin immunoblot
Description: Cells were cultured in complete medium with and without ligand for 14 days, during which time the media and ligand treatment was replaced every 3-4 days. 3 Days prior to the first time point (Day 14), cells were trypsinised, counted and seeded into plastic 35 mm dishes at appropriate seeding densities for the first 3 collection time points. 3 Days prior to the last of the 3 collection time points, the procedure was repeated for the second 3 collection time points, and so on until all time points were collected. Ligand was removed from all cultures at Day 14. At the time of harvest, cells were harvested as described in the western blotting section above. All samples were micro-centrifuged and stored at −80° C. until the end of the experiment, at which time all samples were processed for western blotting.

HGF: Hepatocyte Growth Factor from Peprotech, used at 100 ng/ml
ACTN1 mRNA fold change (CFPAC1 cells; ligand 1 Day): NC (Only changes greater than 3 fold are reported. NC indicates no change.)
CDH1 mRNA fold change (CFPAC1 cells; ligand 1 Day): NC (Only changes greater than 3 fold are reported. NC indicates no change.)
CDH2 mRNA fold change (CFPAC1 cells; ligand 1 Day): NC (Only changes greater than 3 fold are reported. NC indicates no change.)
ITGB3 mRNA fold change (CFPAC1 cells; ligand 1 Day): NC (Only changes greater than 3 fold are reported. NC indicates no change.)
MMP7 mRNA fold change (CFPAC1 cells; ligand 1 Day): NC (Only changes greater than 3 fold are reported. NC indicates no change.)
MTA3 mRNA fold change (CFPAC1 cells; ligand 1 Day): NC (Only changes greater than 3 fold are reported. NC indicates no change.)
PLAUR mRNA fold change (CFPAC1 cells; ligand 1 Day): NC (Only changes greater than 3 fold are reported. NC indicates no change.)
SNAI1 mRNA fold change (CFPAC1 cells; ligand 1 Day): NC (Only changes greater than 3 fold are reported. NC indicates no change.)
SNAI2 mRNA fold change (CFPAC1 cells; ligand 1 Day): NC (Only changes greater than 3 fold are reported. NC indicates no change.)
SPARC mRNA fold change (CFPAC1 cells; ligand 1 Day): NC (Only changes greater than 3 fold are reported. NC indicates no change.)
TWIST1 mRNA fold change (CFPAC1 cells; ligand 1 Day): NC (Only changes greater than 3 fold are reported. NC indicates no change.)
VIM mRNA fold change (CFPAC1 cells; ligand 1 Day): NC (Only changes greater than 3 fold are reported. NC indicates no change.)
ZEB1 mRNA fold change (CFPAC1 cells; ligand 1 Day): NC (Only changes greater than 3 fold are reported. NC indicates no change.)
ZEB2 mRNA fold change (CFPAC1 cells; ligand 1 Day): NC (Only changes greater than 3 fold are reported. NC indicates no change.)
ACTN1 mRNA fold change (CFPAC1 cells; ligand 7 Day): NC (Only changes greater than 3 fold are reported. NC indicates no change.)
CDH1 mRNA fold change (CFPAC1 cells; ligand 7 Day): NC (Only changes greater than 3 fold are reported. NC indicates no change.)
CDH2 mRNA fold change (CFPAC1 cells; ligand 7 Day): NC (Only changes greater than 3 fold are reported. NC indicates no change.)
ITGB3 mRNA fold change (CFPAC1 cells; ligand 7 Day): 3.57 fold
MMP7 mRNA fold change (CFPAC1 cells; ligand 7 Day): NC (Only changes greater than 3 fold are reported. NC indicates no change.)
MTA3 mRNA fold change (CFPAC1 cells; ligand 7 Day): NC (Only changes greater than 3 fold are reported. NC indicates no change.)
PLAUR mRNA fold change (CFPAC1 cells; ligand 7 Day): NC (Only changes greater than 3 fold are reported. NC indicates no change.)
SNAI1 mRNA fold change (CFPAC1 cells; ligand 7 Day): NC (Only changes greater than 3 fold are reported. NC indicates no change.)
SNAI2 mRNA fold change (CFPAC1 cells; ligand 7 Day): NC (Only changes greater than 3 fold are reported. NC indicates no change.)
SPARC mRNA fold change (CFPAC1 cells; ligand 7 Day): −5.41 fold
TWIST1 mRNA fold change (CFPAC1 cells; ligand 7 Day): 612 fold
VIM mRNA fold change (CFPAC1 cells; ligand 7 Day): NC (Only changes greater than 3 fold are reported. NC indicates no change.)
ZEB1 mRNA fold change (CFPAC1 cells; ligand 7 Day): NC (Only changes greater than 3 fold are reported. NC indicates no change.)
ZEB2 mRNA fold change (CFPAC1 cells; ligand 7 Day): NC (Only changes greater than 3 fold are reported. NC indicates no change.)
Reversal of EMT upon withdrawal of ligand (CFPAC-1 cells): can be reversed
